Measured values published in patent publication US20230373938A1, “BENZOTHIAZOLE MEROTERPENOID COMPOUND AND DERIVATIVE THEREOF, AND PREPARATION METHOD THEREFOR AND USE THEREOF” (THIRD INSTITUTE OF OCEANOGRAPHY, MINISTRY OF NATURAL …, priority 2020, published 2023).

Columns and labels:
[1] = target: T1, RXRalpha (Homo sapiens, UniProt P19793); assay: RXRalpha dual-luciferase reporter gene assay (transcriptional activity); assay type: cell-based; conditions: 293T cells, in combination with agonist 9-cis-RA; dosed 12.5, 25, 50 μM for 12 h
T1 construct: expressed in transfected cells; host or cells: Human embryonic kidney cells (293T)
T1 sequence (P19793 1-462): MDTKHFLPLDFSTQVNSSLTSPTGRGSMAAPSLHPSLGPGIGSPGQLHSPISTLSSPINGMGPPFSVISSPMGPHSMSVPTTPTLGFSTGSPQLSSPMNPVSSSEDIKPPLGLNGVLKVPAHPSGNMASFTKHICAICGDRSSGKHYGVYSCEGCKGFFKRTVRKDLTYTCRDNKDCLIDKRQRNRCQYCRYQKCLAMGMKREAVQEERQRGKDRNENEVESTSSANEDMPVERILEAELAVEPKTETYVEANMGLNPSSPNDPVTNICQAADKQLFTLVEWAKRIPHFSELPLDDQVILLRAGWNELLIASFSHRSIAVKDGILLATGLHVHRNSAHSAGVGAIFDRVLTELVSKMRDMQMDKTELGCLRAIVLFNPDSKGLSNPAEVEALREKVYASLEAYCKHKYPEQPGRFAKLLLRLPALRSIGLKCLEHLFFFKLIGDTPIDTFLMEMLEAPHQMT
Text: In this embodiment, a dual-luciferase reporter (DLR) assay system consisting of firefly luciferase (FL) reporter gene and Rellina luciferase (RL) reporter gene is used. The RL reporter gene is used as an internal control to normalize measurement results of the FL reporter gene. In cells lacking endogenous RXRalpha and necessary components for downstream signal transduction, a receptor RXRalpha and reporter gene containing RXRalpha response elements are introduced by transfection, so as to simply simulate a transcriptional activation process of a receptor in vivo.
In this embodiment, the following three groups are set: • Negative control group: culture solution of an equal amount, 0.1% DMSO, containing cells, without the compounds as represented by formulas I to III; • Positive control group: culture solution of an equal amount, added with an RXRalpha agonist 9-cis-retinoic acid with or without an antagonist UVI3003 respectively; • Treatment group: cell culture solutions added with an RXRalpha agonist 9-cis-retinoic acid and the compounds as represented by formulas I to III respectively.
Specific steps include: • (1) Cell culture and preparation of test solution • Human embryonic kidney cells (293T) are cultured in a DMEM medium containing 10% fetal bovine serum (FBS) in an incubator containing 5% CO2 at 37° C., and passaged regularly based on growth law of the cells. […]

[2] = target: T2, RXRalpha-LBD protein (Homo sapiens, UniProt P19793); assay: Biacore (surface plasmon resonance) binding to RXRalpha-LBD protein; conditions: Biacore T200, CM5 chip
T2 sequence (P19793 227-458 limits assumed): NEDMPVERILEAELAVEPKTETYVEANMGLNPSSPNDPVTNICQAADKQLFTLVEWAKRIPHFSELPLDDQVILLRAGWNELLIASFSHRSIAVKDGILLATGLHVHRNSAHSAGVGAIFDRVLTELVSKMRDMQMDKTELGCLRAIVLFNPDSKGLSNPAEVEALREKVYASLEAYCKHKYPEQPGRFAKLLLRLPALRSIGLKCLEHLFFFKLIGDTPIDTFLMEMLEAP
Protocol: A purified nuclear receptor RXRalpha-LBD protein is coupled with a CM5 chip of Biacore. Then the compounds to be tested are diluted with PBS to prepare solutions at different concentrations before sampling. When samples to be tested flow over the surface of the chip, the binding between biomolecules results in an increase in surface mass of a biosensor, so that refractive index changes. By monitoring angular variation of SPR, kinetic binding and dissociation constants, affinity and specificity of analytes can be automatically obtained. A BiacoreT200 detector can detect interaction between a target protein and the samples to be tested in real time, and binding strength is expressed in response unites (RU) (a change in concentration of binding substances on the chip surface by 1 pg/mm2 is defined as 1 RU). The compounds I to III are screened by Biacore technology, and a binding constant KD of small molecular compounds with RXRalpha-LBD is calculated based on a concentration gradient experiment.

binding mode to RXRalpha protein [2]: fast binding and fast dissociation mode | Kd ([2]; concentration gradient, read-out: binding constant KD with RXRalpha-LBD): 12.3 µM
SMILES: C=C1CCC2C(C)(C)CCC[C@]2(C)[C@H]1Cc1cc(O)c(C)c2sc(C(=O)NCC(=O)O)nc12 (stereo partly drawn) [compound I, meroterpenthiazole A]
inhibition of the transcription of RXRalpha by 9-cis-RA [1]: inhibit the transcription of RXRalpha by 9-cis-RA in a concentration-dependent manner
